Data published in patent publication US11247980B2, “Herbicidal uracilpyrid” (BASF SE, priority 2017, dated 2022).

How the values were obtained:
[1] = tested on: CHEAL; test: greenhouse experiments, herbicidal activity, post-emergence treatment; assay type: in vivo, Chenopodium album; conditions: application rate 1 g/ha, scale 0 to 100
Source text: (§1) The culture containers used were plastic flowerpots containing loamy sand with approximately 3.0% of humus as the substrate. The seeds of the test plants were sown separately for each species.
(§2) For the pre-emergence treatment, the active ingredients, which had been suspended or emulsified in water, were applied directly after sowing by means of finely distributing nozzles. The containers were irrigated gently to promote germination and growth and subsequently covered with transparent plastic hoods until the plants had rooted. This cover caused uniform germination of the test plants, unless this had been impaired by the active ingredients. For the post-emergence treatment, the test plants were first grown to a height of 3 to 15 cm, depending on the plant habit, and only then treated with the active ingredients which had been suspended or emulsified in water. For this purpose, the test plants were either sown directly and grown in the same containers, or they were first grown separately as seedlings and transplanted into the test containers a few days prior to treatment.
(§3) Depending on the species, the plants were kept at 10-25° C. or 20-35° C., respectively. The test period extended over 2 to 4 weeks. During this time, the plants were tended, and their response to the individual treatments was evaluated.
(§4) Evaluation was carried out using a scale from 0 to 100. […]

[2] = tested on: ALOMY; test: as above; assay type: in vivo, Alopecurus myosuroides; conditions: application rate 8 g/ha, scale 0 to 100
Source text: as §1, §2, §3, §4

[3] = tested on: BRADC; test: as above; assay type: in vivo, Brachiaria decumbens; conditions: application rate 2 g/ha, scale 0 to 100
Source text: as §1, §2, §3, §4

[4] = tested on: LOLMU; test: as above; assay type: in vivo, Lolium multiflorum; conditions: application rate 8 g/ha, scale 0 to 100
Source text: as §1, §2, §3, §4

[5] = tested on: MATCH; test: as above; assay type: in vivo, Matricaria chamomilla; conditions: application rate 8 g/ha, scale 0 to 100
Source text: as §1, §2, §3, §4

[6] = tested on: ZEAMX; test: greenhouse experiments, post-emergence treatment, crop compatibility; assay type: in vivo, Zea mays; conditions: crop plants ZEAMX, application rate 2 g/ha, scale 0 to 100
Source text: as §1, §2, §3, §4

[7] = tested on: sensitive (w.1); test: greenhouse experiment, control of resistant weeds: sensitive biotype; assay type: in vivo; conditions: for weed control (%) w.1: AMATA Amaranthus tamariscinus, sensitive biotype; for activity on sensitive weeds (w.1): greenhouse, scale from 0 to 100
Source text: (§5) The culture containers used were plastic flowerpots containing loamy sand with approximately 3.0% of humus as the substrate. The seeds of the test plants were sown separately for each species and/or resistant biotype. For the pre-emergence treatment, the active ingredients, which had been suspended or emulsified in water, were applied directly after sowing by means of finely distributing nozzles. The containers were irrigated gently to promote germination and growth and subsequently covered with transparent plastic hoods until the plants had rooted. This cover caused uniform germination of the test plants, unless this had been impaired by the active ingredients. For the post-emergence treatment, the test plants were first grown to a height of 3 to 15 cm, depending on the plant habit, and only then treated with the active ingredients which had been suspended or emulsified in water. For this purpose, the test plants were either sown directly and grown in the same containers, or they were first grown separately as seedlings and transplanted into the test containers a few days prior to treatment. Depending on the species, the plants were kept at 10-25° C. or 20-35° C., respectively. The test period extended over 2 to 4 weeks. During this time, the plants were tended, and their response to the individual treatments was evaluated. The evaluation was carried out by using a scale from 0 to 100. 100 means no emergence of the plants or complete destruction of at least the above-ground parts, and 0 means no damage, or normal course of growth.
(§6) The plants used in the greenhouse experiments were of the following species and biotype: […]

[8] = tested on: resistant weeds containing the ΔG210 mutation (w.2); test: greenhouse experiment, control of resistant weeds: resistant biotype; assay type: in vivo; conditions: for weed control (%) w.2: AMATA Amaranthus tamariscinus, PPO resistant biotype 1 (ΔG210 mutation); for activity on resistant weeds containing the ΔG210 mutation (w.2): greenhouse, scale from 0 to 100
Source text: as §5, §6

[9] = tested on: resistant weeds containing the ΔG210 mutation (w.3); test: as above; assay type: in vivo; conditions: for weed control (%) w.3: AMATA Amaranthus tamariscinus, PPO resistant biotype 2 (ΔG210 mutation); for activity on resistant weeds containing the ΔG210 mutation (w.3): greenhouse, scale from 0 to 100
Source text: as §5, §6

Row | Compound | damages [1] | damages [2] | damages [3] | damages [4] | damages [5] | damages [6] | weed control (%) w.1 ([7]; use rate 2 g/ha) [%] | weed control (%) w.1 ([7]; use rate 4 g/ha) [%] | activity on sensitive weeds (w.1) [7] | weed control (%) w.2 ([8]; use rate 2 g/ha) [%] | weed control (%) w.2 ([8]; use rate 4 g/ha) [%] | activity on resistant weeds containing the ΔG210 mutation (w.2) [8] | weed control (%) w.3 ([9]; use rate 2 g/ha) [%] | weed control (%) w.3 ([9]; use rate 4 g/ha) [%] | activity on resistant weeds containing the ΔG210 mutation (w.3) [9]
1 | COC(=O)C(OC)Oc1ccccc1Oc1nc(-n2c(=O)cc(C(F)(F)F)n(C)c2=O)c(F)cc1Cl (centres unmarked) [compound 2, Methyl 2-[2-[[3-chloro-5-fluoro-6-[3-methyl-2,6-dioxo-4-(trifluoromethyl)pyrimidin-1-yl]-2-pyridyl]oxy]phenoxy]-2-methoxy-acetate] | 90 | 70 | 80 | 70 | 70 | 25 | – | – | – | – | – | – | – | – | –
2 | CCOC(=O)COc1ccccc1Oc1nc(-n2c(=O)cc(C(F)(F)F)n(C)c2=O)c(F)cc1Cl [compound 1, Ethyl 2-[2-[[3-chloro-5-fluoro-6-[3-methyl-2,6-dioxo-4-(trifluoromethyl)pyrimidin-1-yl]-2-pyridyl]oxy]phenoxy]acetate] | – | – | – | – | – | – | 88 | 100 | very good activity | 87 | 100 | very good activity | 98 | 100 | very good activity
3 | C#CCOc1cc(-n2nc3n(c2=O)CCCC3)c(Cl)cc1Cl [azafenidin, reference compound] | – | – | – | – | – | – | 88 | 100 | – | 62 | 78 | much weaker control of resistant in comparison to sensitive biotypes | 77 | 77 | much weaker control of resistant in comparison to sensitive biotypes
4 | CCOC(=O)COc1ncccc1Oc1nc(-n2c(=O)cc(C(F)(F)F)n(C)c2=O)c(F)cc1Cl [compound 7, Ethyl 2-[[3-[[3-chloro-5-fluoro-6-[3-methyl-2,6-dioxo-4-(trifluoromethyl)pyrimidin-1-yl]-2-pyridyl]oxy]-2-pyridyl]oxy]acetate] | – | – | – | – | – | – | 93 | 100 | very good activity | 100 | 100 | very good activity | 100 | 100 | very good activity
